# Data taken from paper PMC10663924 (Saudi Pharmaceutical Journal : SPJ, 2023).
# What was measured:
# [1] = target: human VEGFR-2 (Homo sapiens, UniProt P35968); assay: biochemical
# [2] = test system: HepG2 cell lines; assay: cells; format: cell-based; details: Homo sapiens, HepG2, read-out: IC50 proliferation of HepG2 (abstract)
# [3] = test system: MCF7 cell lines; assay: cells; format: cell-based; details: Homo sapiens, MCF7, read-out: IC50 proliferation of MCF7 (abstract)
# [4] = test system: Vero cell line; assay: MTT safety assay, Vero normal cells; format: cell-based; details: Chlorocebus sabaeus, read-out: IC50 against normal cell line (Vero)
# [5] = test system: MCF7 cells; assay: Annexin V / PI flow cytometry apoptosis analysis; format: cell-based; details: 30.95 µM
# [6] = test system: TNF-α; assay: qRT-PCR of TNF-α in MCF7 cells; format: cell-based; details: treated MCF7 cells vs control
# [7] = test system: IL-2; assay: qRT-PCR of IL-2 in MCF7 cells; format: cell-based; details: treated MCF7 cells vs control
# [8] = test system: MCF7 cells; assay: Scratch; format: cell-based
# [9] = Determination of LD50 in mice; format: in vivo; details: male, BALB/c, mouse, in vivo, po
# [10] = test system: BALB/c male mice; assay: Determination of LD50 in mice; format: in vivo; details: mice, 1 and 3 gm/kg single dose orally, 24 h
# [11] = Liver function test; details: mice; for ALT level: control 25.2 ± 1.2; for AST level: control 29.1 ± 1.1
# [12] = target: Human EGFR (Homo sapiens, UniProt P00533); assay: In vitro multikinase assay
# Chain of Human EGFR (P00533 25-1210): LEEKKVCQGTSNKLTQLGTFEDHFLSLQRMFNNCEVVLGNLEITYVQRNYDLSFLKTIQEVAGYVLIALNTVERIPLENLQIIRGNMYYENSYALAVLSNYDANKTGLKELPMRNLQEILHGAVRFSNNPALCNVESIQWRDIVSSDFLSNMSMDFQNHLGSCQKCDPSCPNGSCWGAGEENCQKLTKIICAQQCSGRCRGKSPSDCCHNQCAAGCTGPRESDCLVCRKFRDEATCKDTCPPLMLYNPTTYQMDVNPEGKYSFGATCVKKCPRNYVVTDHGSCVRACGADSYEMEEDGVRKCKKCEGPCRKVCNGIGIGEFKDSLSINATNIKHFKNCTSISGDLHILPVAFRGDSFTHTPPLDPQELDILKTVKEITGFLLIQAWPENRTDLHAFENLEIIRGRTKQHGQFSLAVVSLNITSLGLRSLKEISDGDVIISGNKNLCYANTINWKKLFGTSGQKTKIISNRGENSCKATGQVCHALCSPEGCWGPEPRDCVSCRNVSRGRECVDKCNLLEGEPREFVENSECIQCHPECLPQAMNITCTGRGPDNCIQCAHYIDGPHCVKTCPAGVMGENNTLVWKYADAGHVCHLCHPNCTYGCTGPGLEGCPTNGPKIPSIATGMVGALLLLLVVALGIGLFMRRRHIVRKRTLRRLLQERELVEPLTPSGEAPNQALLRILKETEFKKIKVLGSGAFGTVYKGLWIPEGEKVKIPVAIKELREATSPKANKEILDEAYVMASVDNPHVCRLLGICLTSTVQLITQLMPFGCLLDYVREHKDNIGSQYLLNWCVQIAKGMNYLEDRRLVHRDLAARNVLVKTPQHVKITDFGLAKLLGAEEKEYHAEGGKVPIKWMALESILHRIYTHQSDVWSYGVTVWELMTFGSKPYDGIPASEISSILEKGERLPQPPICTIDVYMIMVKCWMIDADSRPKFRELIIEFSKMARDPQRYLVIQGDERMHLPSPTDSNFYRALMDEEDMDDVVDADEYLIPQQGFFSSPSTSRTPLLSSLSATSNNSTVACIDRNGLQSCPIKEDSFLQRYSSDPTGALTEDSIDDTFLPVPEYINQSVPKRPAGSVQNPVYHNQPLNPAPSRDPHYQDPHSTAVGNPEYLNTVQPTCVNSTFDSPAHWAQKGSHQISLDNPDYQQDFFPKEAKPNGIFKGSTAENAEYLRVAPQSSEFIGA
# [13] = target: Human PDGFRβ (Homo sapiens, UniProt P09619); assay: In vitro multikinase assay
# Chain of Human PDGFRβ (P09619 33-1106): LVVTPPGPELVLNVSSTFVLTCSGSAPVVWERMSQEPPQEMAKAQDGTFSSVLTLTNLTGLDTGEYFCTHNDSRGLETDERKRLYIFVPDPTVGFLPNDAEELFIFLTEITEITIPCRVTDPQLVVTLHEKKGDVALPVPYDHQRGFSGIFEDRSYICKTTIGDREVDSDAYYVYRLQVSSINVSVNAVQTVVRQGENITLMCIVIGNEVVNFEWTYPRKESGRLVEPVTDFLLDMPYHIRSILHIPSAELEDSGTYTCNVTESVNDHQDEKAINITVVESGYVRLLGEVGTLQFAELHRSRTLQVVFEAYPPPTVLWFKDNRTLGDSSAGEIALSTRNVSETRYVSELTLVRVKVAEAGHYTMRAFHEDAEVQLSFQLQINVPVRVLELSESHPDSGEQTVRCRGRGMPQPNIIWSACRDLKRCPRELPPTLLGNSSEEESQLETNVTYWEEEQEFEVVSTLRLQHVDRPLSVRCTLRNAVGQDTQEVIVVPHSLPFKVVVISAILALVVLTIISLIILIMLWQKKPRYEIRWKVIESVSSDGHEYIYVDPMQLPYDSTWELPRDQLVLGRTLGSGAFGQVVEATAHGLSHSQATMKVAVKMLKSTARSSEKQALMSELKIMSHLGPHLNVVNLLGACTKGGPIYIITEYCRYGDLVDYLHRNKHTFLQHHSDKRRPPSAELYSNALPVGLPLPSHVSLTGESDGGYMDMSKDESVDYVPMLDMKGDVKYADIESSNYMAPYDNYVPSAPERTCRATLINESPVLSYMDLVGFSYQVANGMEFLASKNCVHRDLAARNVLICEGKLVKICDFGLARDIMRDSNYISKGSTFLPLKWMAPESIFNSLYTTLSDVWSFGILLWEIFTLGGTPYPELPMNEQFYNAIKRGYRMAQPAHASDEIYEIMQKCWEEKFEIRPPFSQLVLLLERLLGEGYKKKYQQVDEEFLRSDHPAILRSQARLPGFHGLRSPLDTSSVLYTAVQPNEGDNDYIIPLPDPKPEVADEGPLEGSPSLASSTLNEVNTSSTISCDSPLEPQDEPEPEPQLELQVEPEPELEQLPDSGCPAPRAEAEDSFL
# [14] = 100 mg/kg oral single dose (group II)
# [15] = 200 mg/kg oral single dose (group III)
# Chain of human VEGFR-2 (P35968 20-1356): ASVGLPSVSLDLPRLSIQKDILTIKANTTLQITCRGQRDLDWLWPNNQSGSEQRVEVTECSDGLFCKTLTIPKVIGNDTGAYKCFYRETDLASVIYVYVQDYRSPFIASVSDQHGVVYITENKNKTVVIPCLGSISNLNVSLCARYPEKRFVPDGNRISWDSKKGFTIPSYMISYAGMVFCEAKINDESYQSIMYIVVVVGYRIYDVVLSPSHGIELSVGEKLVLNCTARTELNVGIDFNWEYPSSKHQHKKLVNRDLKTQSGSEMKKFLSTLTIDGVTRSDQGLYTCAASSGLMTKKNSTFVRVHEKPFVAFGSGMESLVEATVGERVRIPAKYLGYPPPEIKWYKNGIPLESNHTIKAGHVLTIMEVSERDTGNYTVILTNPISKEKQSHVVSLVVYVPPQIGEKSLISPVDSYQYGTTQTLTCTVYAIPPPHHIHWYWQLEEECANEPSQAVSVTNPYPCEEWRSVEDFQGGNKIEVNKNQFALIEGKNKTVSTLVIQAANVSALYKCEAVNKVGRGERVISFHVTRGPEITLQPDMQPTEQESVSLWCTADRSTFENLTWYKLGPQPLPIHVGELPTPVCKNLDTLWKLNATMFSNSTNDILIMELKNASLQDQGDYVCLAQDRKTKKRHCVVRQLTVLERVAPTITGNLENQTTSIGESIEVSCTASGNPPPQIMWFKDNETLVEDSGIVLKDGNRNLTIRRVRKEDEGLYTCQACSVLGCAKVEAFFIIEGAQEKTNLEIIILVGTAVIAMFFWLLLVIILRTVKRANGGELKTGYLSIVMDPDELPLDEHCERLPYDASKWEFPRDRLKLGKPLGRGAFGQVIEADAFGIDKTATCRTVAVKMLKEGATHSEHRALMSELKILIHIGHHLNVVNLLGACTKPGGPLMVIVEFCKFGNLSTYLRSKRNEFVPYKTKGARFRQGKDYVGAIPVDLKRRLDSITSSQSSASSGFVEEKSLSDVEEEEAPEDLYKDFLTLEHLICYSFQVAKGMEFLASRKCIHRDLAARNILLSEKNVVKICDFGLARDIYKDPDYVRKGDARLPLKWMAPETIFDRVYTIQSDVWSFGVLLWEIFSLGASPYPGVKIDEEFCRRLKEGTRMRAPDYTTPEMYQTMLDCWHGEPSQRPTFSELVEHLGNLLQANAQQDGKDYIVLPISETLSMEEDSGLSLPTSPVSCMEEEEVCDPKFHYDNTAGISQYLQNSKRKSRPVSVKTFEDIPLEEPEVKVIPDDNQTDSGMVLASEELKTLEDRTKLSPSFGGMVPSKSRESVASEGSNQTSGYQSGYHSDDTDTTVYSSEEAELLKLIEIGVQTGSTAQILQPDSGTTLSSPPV
structure (smiles),measurement,setting,value
"CC(=NNC(=O)c1cccc(C)c1)c1ccc(NC(=O)Cn2c(=O)c3c(ncn3C)n(C)c2=O)cc1 [T-1-MBHEPA, 2-(3,7-dimethyl-2,6-dioxo-2,3,6,7-tetrahydro-1H-purin-1-yl)-N-(4-(1-(2-(3-methylbenzoyl)hydrazono)ethyl)phenyl)acetamide]",IC50,[1],0.121 ± 0.051 µM
same,IC50,[2],4.61 µM
same,IC50,[3],4.85 µM
same,IC50,[4],80 µM
same,Apoptosis Early %,[5],7.22%
same,Apoptosis Late %,[5],2.72%
same,Apoptosis Total %,[5],21.35%
same,Necrosis %,[5],11.41%
same,Reduction of TNF-α production,[6],33%
same,Reduction of IL-2 production,[7],58%
same,Scratch area at 48 h,[8]; MCF7,892.6667
same,Scratch width at 48 h,[8]; MCF7,891.751
same,Area difference %,"[8]; MCF7, 48 h",71.333%
same,RM um,"[8]; MCF7, 48 h",1.485 um
same,Wound closure % um^2,"[8]; MCF7, 48 h",7.399 % um^2
same,Decrease of scratch width (healing and migration) within 48 h,"[8]; MCF7, 48 h, untreated 65.9 %",7.4%
same,LD50 at 24 h,[9],5000 mg/kg
same,Tolerability of the other doses,[10],well tolerated
same,ALT level,[11]; [14],25.3 ± 2.1
same,AST level,[11]; [14],29.2 ± 1.1
same,ALT level,[11]; [15],28.9 ± 2.1
same,AST level,[11]; [15],31.7 ± 1.8
same,IC50,[12],0.355 ± 0.014 µM
same,IC50,[13],0.179 ± 0.009 µM
